Results from ChEMBL document CHEMBL3045775, “Methyl jasmonate-induced suppression of anthracnose rot in tomato fruit” (Crop Prot, 2007).
Activity calls are given as the source filed them. The rule behind the calls is not given here.

Key:
Colletotrichum coccodes [1] = assay: Antifungal activity against Colletotrichum coccodes infected tomato fruit assessed as decrease in fruit cracking at 100% v/v incubated for 7 days post-inoculation relative to control; format: functional, organism-based
Colletotrichum coccodes [2] = assay: Antifungal activity against Colletotrichum coccodes assessed as spore production at 44.8 ul/l inoculated on medium pretreated with compound for 7 days followed by compound wash-out measured after 9 days (7.7 +/- 4.15 10^5/ml); format: functional
Colletotrichum coccodes [3] = assay: Antifungal activity against Colletotrichum coccodes assessed as spore production at 44.8 ul/l incubated for 9 days post-inoculation (reference value: 7.1 +/- 2.44 10^5/ml); format: functional
Colletotrichum coccodes [4] = assay: Antifungal activity against Colletotrichum coccodes assessed as spore germination at 44.8 ul/l inoculated on medium pretreated with compound for 24 hr followed by compound wash-out measured after 24 hr (100%); format: functional
Colletotrichum coccodes [5] = assay: Antifungal activity against Colletotrichum coccodes infected tomato fruit assessed as spore production at 44.8 ul/l incubated for 9 days post-inoculation (reference value: 1.6 +/- 0.92 10^5/ml); format: functional
Colletotrichum coccodes [6] = assay: Antifungal activity against Colletotrichum coccodes infected tomato fruit assessed as lesion area at 44.8 ul/l incubated for 7 days post-inoculation (reference value: 1.64 +/- 0.62 cm2); format: functional
Colletotrichum coccodes [7] = assay: Antifungal activity against Colletotrichum coccodes infected tomato fruit assessed as spore germination at 44.8 ul/l incubated for 7 days post-inoculation followed by spore inoculation on medium measured after 24 hr (reference value: 96.5 +/- 2.66%); format: functional
Colletotrichum coccodes [8] = assay: Antifungal activity against Colletotrichum coccodes assessed as colony area at 44.8 ul/l inoculated on medium pretreated with compound for 7 days followed by compound wash-out measured after 7 days (5.98 +/- 0.36 cm2); format: functional
Colletotrichum coccodes [9] = assay: Antifungal activity against Colletotrichum coccodes infected tomato fruit assessed as suppression in lesion at 41.8 ul/l incubated for 20 min followed by compound wash out measured after 6 days relative to control; format: functional, organism-based
Colletotrichum coccodes [10] = assay: Antifungal activity against Colletotrichum coccodes assessed as colony area at 44.8 ul/l incubated for 7 days post-inoculation (reference value: 9.55 +/- 0.25 cm2); format: functional
Colletotrichum coccodes [11] = assay: Antifungal activity against Colletotrichum coccodes infected tomato fruit assessed as spore germination at 44.8 ul/l inoculated on fruit pre-treated with compound for 7 days followed by 7 days incubation measured 24 hr post spore-inoculation on medium (reference value: 88.8 +/- 5.19%); format: functional
Colletotrichum coccodes [12] = assay: Induction of Colletotrichum coccodes growth infected tomato fruit assessed as fruit cracking at 100% v/v incubated for 7 days post-inoculation relative to control; format: organism-based; details: in vivo, 168 h
Colletotrichum coccodes [13] = assay: Antifungal activity against Colletotrichum coccodes infected tomato fruit assessed as lesion area at 44.8 ul/l inoculated on fruit pretreated with compound for 7 days measured after 7 days (reference value: 4.33 +/- 0.6 cm2); format: functional
Colletotrichum coccodes [14] = assay: Antifungal activity against Colletotrichum coccodes infected tomato fruit assessed as suppression in lesion at 41.8 ul/l inoculated on fruit pretreated with compound for 20 min measured after 9 days relative to control; format: functional
Colletotrichum coccodes [15] = assay: Antifungal activity against Colletotrichum coccodes infected tomato fruit assessed as spore production at 44.8 ul/l inoculated on fruit pre-treated with compound for 7 days measured after 9 days (reference value: 11.2 +/- 4.29 10^5/ml); format: functional
Colletotrichum coccodes [16] = assay: Antifungal activity against Colletotrichum coccodes assessed as spore germination at 44.8 ul/l incubated for 24 hr post-inoculation (reference value: 100%); format: functional

| Activity (Colletotrichum coccodes [12]) [%] | Structure (SMILES) | Activity (Colletotrichum coccodes [1]) | Activity (Colletotrichum coccodes [2]) [×10⁵ /ml] | Activity (Colletotrichum coccodes [3]) [×10⁵ /ml] | Activity (Colletotrichum coccodes [4]) [%] | Activity (Colletotrichum coccodes [5]) [×10⁵ /ml] | Activity (Colletotrichum coccodes [6]) [cm2] | Activity (Colletotrichum coccodes [7]) [%] | Activity (Colletotrichum coccodes [8]) [cm2] | Activity (Colletotrichum coccodes [9]) | Activity (Colletotrichum coccodes [10]) [cm2] | Activity (Colletotrichum coccodes [11]) [%] | Activity (Colletotrichum coccodes [13]) [cm2] | Activity (Colletotrichum coccodes [14]) [%] | Activity (Colletotrichum coccodes [15]) [×10⁵ /ml] | Activity (Colletotrichum coccodes [16]) [%] |
| --- | --- | --- | --- | --- | --- | --- | --- | --- | --- | --- | --- | --- | --- | --- | --- | --- |
|  | Cl | Active |  |  |  |  |  |  |  |  |  |  |  |  |  |  |
| 23 | CC/C=C\CC1C(=O)CCC1CC(=O)OC (configuration not stated) [METHYL JASMONATE] | Active | 7.6 | 6.9 | 99 | 1 | 2.79 | 51.6 | 4.55 | inactive | 8.18 | 55.2 | 4.74 | 20 | 7.7 | 99.5 |
